Measured values reported in US8940742B2, “Heterocyclic compounds and uses thereof” (Infinity Pharmaceuticals, Inc., priority 2012, dated 2015).

Assays:
[1] = test system: NZB/W F1 mice; settings: NZB/W model, profilactic and therapeutic; cited from earlier work
[2] = target: T1, PI3K α (Homo sapiens, UniProt P42336); assay: PI3-Kinase Promega ADP-Glo Max assay; format: biochemical; settings: 20 nM kinase, 3 mM ATP, 500 uM diC8-PtdInsP
T1 construct: purchased Millipore
Outline: (§1)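 Human class I PI3K (20 nM α or δ, 40 nM β) pre-incubated 15 min with compound in HEPES pH 7.4 buffer with MgCl2, then reacted 2 h at room temperature with 3 mM ATP and 500 uM diC8-PtdInsP. ADP measured by ADP-Glo Max luminescence; % inhibition fitted to 4-parameter logistic for IC50.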

[3] = target: T2, PI3K β (Homo sapiens, UniProt P42338); assay: PI3-Kinase Promega ADP-Glo Max assay; format: biochemical; settings: 40 nM kinase, 3 mM ATP, 500 uM diC8-PtdInsP
T2 construct: purchased Millipore
Outline: as §1

[4] = target: T3, PI3K δ (Homo sapiens, UniProt O00329); assay: PI3-Kinase Promega ADP-Glo Max assay; format: biochemical; settings: 20 nM kinase, 3 mM ATP, 500 uM diC8-PtdInsP
T3 construct: purchased Millipore
T3 sequence (O00329 whole entry): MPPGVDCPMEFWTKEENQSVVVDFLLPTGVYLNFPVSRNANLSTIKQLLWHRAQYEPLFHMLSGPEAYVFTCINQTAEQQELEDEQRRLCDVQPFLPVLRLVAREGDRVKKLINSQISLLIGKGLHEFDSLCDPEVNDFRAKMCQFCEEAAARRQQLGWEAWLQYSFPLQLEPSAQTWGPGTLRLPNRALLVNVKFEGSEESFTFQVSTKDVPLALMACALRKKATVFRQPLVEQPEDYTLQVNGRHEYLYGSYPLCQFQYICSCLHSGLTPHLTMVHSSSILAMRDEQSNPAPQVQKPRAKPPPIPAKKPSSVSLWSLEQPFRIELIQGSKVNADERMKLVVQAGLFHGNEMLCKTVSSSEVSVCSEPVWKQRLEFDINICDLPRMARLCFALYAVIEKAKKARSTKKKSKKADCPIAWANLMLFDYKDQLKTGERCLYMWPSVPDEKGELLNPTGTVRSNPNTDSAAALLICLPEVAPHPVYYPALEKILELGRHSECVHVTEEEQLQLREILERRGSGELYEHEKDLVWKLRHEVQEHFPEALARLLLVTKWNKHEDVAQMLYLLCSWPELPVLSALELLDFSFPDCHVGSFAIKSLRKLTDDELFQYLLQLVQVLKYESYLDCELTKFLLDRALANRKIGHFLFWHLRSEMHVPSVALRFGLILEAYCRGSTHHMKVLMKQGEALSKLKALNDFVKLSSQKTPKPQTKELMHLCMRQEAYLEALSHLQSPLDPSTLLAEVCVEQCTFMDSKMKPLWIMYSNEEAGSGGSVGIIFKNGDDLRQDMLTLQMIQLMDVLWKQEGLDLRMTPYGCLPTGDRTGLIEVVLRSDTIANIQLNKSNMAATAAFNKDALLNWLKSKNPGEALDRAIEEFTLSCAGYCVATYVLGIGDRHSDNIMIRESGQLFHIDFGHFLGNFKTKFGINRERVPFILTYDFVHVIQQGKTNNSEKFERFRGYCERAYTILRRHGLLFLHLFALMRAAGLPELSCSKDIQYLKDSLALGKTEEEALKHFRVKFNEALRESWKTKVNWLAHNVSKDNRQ
T3 sequence (P27986 whole entry partner): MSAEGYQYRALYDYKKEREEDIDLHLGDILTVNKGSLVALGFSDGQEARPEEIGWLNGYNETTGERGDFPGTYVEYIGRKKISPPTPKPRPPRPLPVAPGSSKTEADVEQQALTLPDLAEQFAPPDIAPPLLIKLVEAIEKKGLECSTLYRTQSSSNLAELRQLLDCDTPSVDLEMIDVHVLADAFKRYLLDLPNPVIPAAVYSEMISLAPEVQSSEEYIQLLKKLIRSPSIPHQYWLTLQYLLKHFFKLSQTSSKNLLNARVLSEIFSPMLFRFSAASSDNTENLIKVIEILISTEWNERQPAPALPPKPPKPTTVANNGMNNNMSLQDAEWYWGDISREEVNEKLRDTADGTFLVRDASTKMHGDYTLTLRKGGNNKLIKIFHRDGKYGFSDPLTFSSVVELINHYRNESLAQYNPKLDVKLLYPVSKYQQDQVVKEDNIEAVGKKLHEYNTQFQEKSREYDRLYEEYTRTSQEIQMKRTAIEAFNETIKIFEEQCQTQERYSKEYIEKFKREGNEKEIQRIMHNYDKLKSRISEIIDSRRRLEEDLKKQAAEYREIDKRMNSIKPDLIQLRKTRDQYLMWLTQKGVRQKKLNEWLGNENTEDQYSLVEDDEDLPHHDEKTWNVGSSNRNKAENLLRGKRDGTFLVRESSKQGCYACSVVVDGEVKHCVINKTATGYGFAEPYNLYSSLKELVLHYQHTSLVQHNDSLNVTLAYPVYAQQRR
Outline: as §1

[5] = target: T4, PI3K γ (Homo sapiens, UniProt P48736); assay: PI3-Kinase Promega ADP-Glo Max assay; format: biochemical; settings: 40 nM kinase, 3 mM ATP, 500 uM diC8-PtdInsP
T4 construct: purchased Millipore
T4 sequence (P48736 whole entry): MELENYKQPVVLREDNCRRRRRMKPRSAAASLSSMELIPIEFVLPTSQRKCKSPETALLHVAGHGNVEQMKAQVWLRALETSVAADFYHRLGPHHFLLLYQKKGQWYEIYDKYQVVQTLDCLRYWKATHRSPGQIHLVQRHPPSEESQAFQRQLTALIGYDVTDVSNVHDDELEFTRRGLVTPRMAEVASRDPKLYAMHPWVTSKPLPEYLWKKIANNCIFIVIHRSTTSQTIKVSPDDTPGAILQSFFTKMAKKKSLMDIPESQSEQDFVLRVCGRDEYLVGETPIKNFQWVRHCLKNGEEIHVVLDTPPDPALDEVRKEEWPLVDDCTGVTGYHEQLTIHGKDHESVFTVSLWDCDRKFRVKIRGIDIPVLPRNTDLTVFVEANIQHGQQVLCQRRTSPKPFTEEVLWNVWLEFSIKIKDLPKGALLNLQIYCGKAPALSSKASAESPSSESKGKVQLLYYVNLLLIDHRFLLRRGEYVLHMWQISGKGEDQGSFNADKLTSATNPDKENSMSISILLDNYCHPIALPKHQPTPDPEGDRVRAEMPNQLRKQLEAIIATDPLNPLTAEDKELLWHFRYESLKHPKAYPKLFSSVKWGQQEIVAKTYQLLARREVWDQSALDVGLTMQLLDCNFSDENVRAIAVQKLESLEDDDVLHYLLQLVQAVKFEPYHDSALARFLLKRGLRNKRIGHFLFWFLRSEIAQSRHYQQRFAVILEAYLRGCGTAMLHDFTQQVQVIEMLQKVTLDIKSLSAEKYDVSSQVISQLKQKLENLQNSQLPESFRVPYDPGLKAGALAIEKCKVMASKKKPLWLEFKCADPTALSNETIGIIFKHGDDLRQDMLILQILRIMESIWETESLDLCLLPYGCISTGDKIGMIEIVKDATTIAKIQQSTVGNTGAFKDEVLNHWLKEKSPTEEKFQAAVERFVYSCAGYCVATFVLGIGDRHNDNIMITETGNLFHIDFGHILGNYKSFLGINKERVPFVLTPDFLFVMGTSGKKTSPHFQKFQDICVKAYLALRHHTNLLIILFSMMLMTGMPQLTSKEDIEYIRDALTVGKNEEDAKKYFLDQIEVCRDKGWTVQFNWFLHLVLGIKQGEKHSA
Outline: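 Human class I PI3K reactions ran 2 hours at room temperature, followed by stop solution (40 min) and detection mix (1 hour) before luminescence reading.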

[6] = target: T5, Raw264.7 p110 γ (Mus musculus, UniProt Q9JHG7); assay: Raw264.7 p110 γ cellular assay (phospho-AKT); format: cell-based; settings: serum-starved RAW264.7 cells stimulated with C5a
T5 construct: reduction of phospho-AKT in stimulated RAW 264.7 cells; endogenous in cells; host or cells: RAW264.7 macrophages
T5 sequence (Q9JHG7 whole entry): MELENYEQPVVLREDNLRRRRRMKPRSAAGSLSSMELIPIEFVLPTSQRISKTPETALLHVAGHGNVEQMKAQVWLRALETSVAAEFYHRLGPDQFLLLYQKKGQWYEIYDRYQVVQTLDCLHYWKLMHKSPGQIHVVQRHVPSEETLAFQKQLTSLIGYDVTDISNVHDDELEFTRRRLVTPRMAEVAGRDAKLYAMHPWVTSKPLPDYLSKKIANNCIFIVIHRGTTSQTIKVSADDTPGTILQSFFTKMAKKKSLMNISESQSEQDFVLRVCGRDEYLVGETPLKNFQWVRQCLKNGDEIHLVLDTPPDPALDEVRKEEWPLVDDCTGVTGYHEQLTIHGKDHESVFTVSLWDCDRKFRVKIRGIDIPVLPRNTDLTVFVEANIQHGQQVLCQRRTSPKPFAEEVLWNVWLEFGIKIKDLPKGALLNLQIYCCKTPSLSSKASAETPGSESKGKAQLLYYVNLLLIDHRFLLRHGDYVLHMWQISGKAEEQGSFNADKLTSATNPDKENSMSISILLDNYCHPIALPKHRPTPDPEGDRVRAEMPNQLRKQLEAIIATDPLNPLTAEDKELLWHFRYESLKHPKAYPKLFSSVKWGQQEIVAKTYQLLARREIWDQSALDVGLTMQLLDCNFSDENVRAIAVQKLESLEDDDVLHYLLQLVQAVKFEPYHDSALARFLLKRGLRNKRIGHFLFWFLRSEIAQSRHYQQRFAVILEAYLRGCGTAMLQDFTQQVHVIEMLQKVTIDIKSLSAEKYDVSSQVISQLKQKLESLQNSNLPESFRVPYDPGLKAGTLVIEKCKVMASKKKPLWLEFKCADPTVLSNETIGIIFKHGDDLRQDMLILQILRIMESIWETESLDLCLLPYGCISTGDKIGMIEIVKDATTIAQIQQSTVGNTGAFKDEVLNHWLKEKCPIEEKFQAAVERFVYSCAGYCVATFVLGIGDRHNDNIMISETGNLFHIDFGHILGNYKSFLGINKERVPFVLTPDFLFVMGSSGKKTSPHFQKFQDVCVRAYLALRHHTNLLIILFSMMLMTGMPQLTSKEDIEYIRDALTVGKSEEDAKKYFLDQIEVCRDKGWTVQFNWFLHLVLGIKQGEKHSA
Excerpt: (b) PI3K-γ Selective Assay
Briefly, serum-starved PAW264.7 cells are stimulated with a known GPCR agonist C5a. […] Cells can be treated with test compounds prior to, simultaneously with, or subsequent to the stimulation by C5a. RAW 264.7 cells respond to the complement component fragment C5a through activation of the C5a receptor, and the C5a receptor activates macrophages and induces cell migration.

[7] = target: RAJI p110 δ (Homo sapiens, UniProt O00329); assay: RAJI p110 δ cellular assay (phospho-AKT);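 also: potency based on lowered phosphorylated AKT in RAJI cells, as a readout of PI3K-δ dependent B-cell receptor signaling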
Chain of RAJI p110 δ (O00329 whole entry): as the sequence (O00329 whole entry) above
Chain of RAJI p110 δ (P27986 whole entry partner): as the sequence (P27986 whole entry partner) above
Excerpt: (a) PI3K-δ Selective Assay
Reduction of phospho-AKT is indicative of compounds that may inhibit B-cell proliferation and function in certain diseases.

[8] = test system: lupus symptoms; settings: B6.Sle1z.Sle3z model; cited from earlier work
[9] = PBS pH 7.4, 37° C., 24 hours, 5 μM; cited from earlier work
[10] = test system: p190 transduced leukemic cells; settings: about 70 mg/kg twice daily; cited from earlier work
[11] = reference compound, 5 μM; cited from earlier work

SMILES | blocking disease [1] | IC50 [2] [µM] | IC50 [3] [µM] | IC50 [4] [µM] | IC50 [5] [µM] | IC50 [6] [µM] | IC50 [7] [µM] | lupus symptoms [8] | chemical stability [9] | leukemogenesis [10] | plasma stability [11]
CC(C)C[C@H](NC(=O)[C@H](Cc1ccccc1)NC(=O)c1cnccn1)B(O)O [Bortezimib] | effective at blocking disease |  |  |  |  |  |  |  |  |  | 
COc1ccc(-c2cccc3cc([C@H](C)NC(=O)c4c(N)nn5cccnc45)n(-c4ccccc4)c(=O)c23)cn1 [Compound 223] |  | > 10 | > 10 | 1 to 10 | 0.1 to 1 | < 0.1 | < 0.1 |  |  |  | 
C[C@H](NC(=O)c1c(N)nn2cccnc12)c1cc2sccc2c(=O)n1-c1ccccc1 [Compound 225] |  | > 10 | 1 to 10 | 1 to 10 | 1 to 10 | 0.1 to 1 | 0.1 to 1 |  |  |  | 
C[C@H](NC(=O)c1c(N)nn2cccnc12)c1cc2cccc(C#N)c2c(=O)n1-c1ccccc1 [Compound 227] |  | > 10 | 1 to 10 | 1 to 10 | 0.1 to 1 | < 0.1 | < 0.1 |  |  |  | 
C[C@H](NC(=O)c1c(N)nn2cccnc12)c1cc2cccc(CO)c2c(=O)n1-c1ccccc1 [Compound 228] |  | > 10 | 1 to 10 | 1 to 10 | 0.1 to 1 | < 0.1 | 0.1 to 1 |  |  |  | 
C=CCn1c([C@H](C)NC(=O)c2c(N)nn3cccnc23)cc2cccc(Cl)c2c1=O [Compound 235] |  | 1 to 10 | < 0.1 | 0.1 to 1 | 0.1 to 1 | < 0.1 | < 0.1 |  |  |  | 
C[C@H](NC(=O)c1c(N)nn2cccnc12)c1cc2cccc(Cl)c2c(=O)n1CC(O)CO (stereo partly drawn) [Compound 238] |  | 1 to 10 | < 0.1 | 0.1 to 1 | 0.1 to 1 | < 0.1 | < 0.1 |  |  |  | 
C[C@H](NC(=O)c1c(N)nn2cccnc12)c1cc2cccc(Cl)c2c(=O)n1CCN(C)C [Compound 242] |  | > 10 | < 0.1 | < 0.1 | 1 to 10 | 0.1 to 1 | < 0.1 |  |  |  | 
C[C@H](NC(=O)c1c(N)nn2cccnc12)c1cc2cccc(-c3cncs3)c2c(=O)n1-c1ccccc1 [Compound 245] |  | 1 to 10 | > 10 | 1 to 10 | 0.1 to 1 | < 0.1 | < 0.1 |  |  |  | 
CC[C@H](NC(=O)c1c(N)nn2cccnc12)c1cc2cccc(Cl)c2c(=O)n1-c1ccccc1 [Compound 250] |  | 1 to 10 | < 0.1 | < 0.1 | 0.1 to 1 | < 0.1 | < 0.1 |  |  |  | 
C[C@H](NC(=O)c1c(N)nn2cccnc12)c1c(Br)c2cccc(Cl)c2c(=O)n1-c1ccccc1 [Compound 254] |  | 1 to 10 | 1 to 10 | 0.1 to 1 | < 0.1 | < 0.1 | < 0.1 |  |  |  | 
Cc1c([C@H](C)NC(=O)c2c(N)nn3cccnc23)n(-c2ccccc2)c(=O)c2c(F)cccc12 [Compound 260] |  | 1 to 10 | 0.1 to 1 | 0.1 to 1 | < 0.1 | < 0.1 | < 0.1 |  |  |  | 
CNc1cccc2cc([C@H](C)NC(=O)c3c(N)nn4cccnc34)n(-c3ccccc3)c(=O)c12 [Compound 266] |  | 1 to 10 | > 10 | > 10 | 1 to 10 | < 0.1 | 0.1 to 1 |  |  |  | 
C[C@H](NC(=O)c1c(N)nn2cccnc12)c1cc2cccc(NCC(F)(F)F)c2c(=O)n1-c1ccccc1 [Compound 267] |  | > 10 | > 10 | > 10 | 1 to 10 | 0.1 to 1 | 0.1 to 1 |  |  |  | 
C[C@H](NC(=O)c1c(N)nn2cccnc12)c1c(C#N)c2cccc(F)c2c(=O)n1-c1ccccc1 [Compound 269] |  | 1 to 10 | 0.1 to 1 | 0.1 to 1 | 0.1 to 1 | < 0.1 | < 0.1 |  |  |  | 
COc1cccc2cc([C@H](C)NC(=O)c3c(N)nn4cccnc34)n(-c3ccccc3)c(=O)c12 [Compound 270] |  | > 10 | > 10 | 1 to 10 | 1 to 10 | 0.1 to 1 | 0.1 to 1 |  |  |  | 
C[C@H](NC(=O)c1c(N)nn2cccnc12)c1cc2cccc(-c3cccs3)c2c(=O)n1-c1ccccc1 [Compound 271] |  | 1 to 10 | 1 to 10 | 1 to 10 | 0.1 to 1 | < 0.1 | 0.1 to 1 |  |  |  | 
C[C@H](NC(=O)c1c(N)nn2cccnc12)c1cc2cccc(Cl)c2c(=O)n1CCN(C)S(C)(=O)=O [Compound 273] |  | 0.1 to 1 | 0.1 to 1 | 0.1 to 1 | < 0.1 | < 0.1 | < 0.1 |  |  |  | 
C#Cc1cccc2cc([C@H](C)NC(=O)c3c(N)nn4cccnc34)n(-c3ccccc3)c(=O)c12 [Compound 276] |  | 0.1 to 1 | 0.1 to 1 | 0.1 to 1 | < 0.1 | < 0.1 | < 0.1 |  |  |  | 
CO[C@H]1C[C@@H]2CC[C@@H](C)[C@@](O)(O2)C(=O)C(=O)N2CCCC[C@H]2C(=O)O[C@H]([C@H](C)C[C@@H]2CC[C@@H](OCCO)[C@H](OC)C2)CC(=O)[C@H](C)/C=C(\C)[C@@H](O)[C@@H](OC)C(=O)[C@H](C)C[C@H](C)/C=C/C=C/C=C/1C [RAD001, everolimus] |  |  |  |  |  |  |  | ameliorate lupus symptoms |  |  | 
O=C(O)CCCc1ccc(N(CCCl)CCCl)cc1 [chlorambucil] |  |  |  |  |  |  |  |  | largely hydrolyzed over the course of 24 hours |  | 
Cc1ccc(NC(=O)c2ccc(CN3CCN(C)CC3)cc2)cc1Nc1nccc(-c2cccnc2)n1 [imatinib] |  |  |  |  |  |  |  |  |  | delay but not cure leukemogenesis | 
CC(C)[N+](C)(CCOC(=O)C1c2ccccc2Oc2ccccc21)C(C)C [propantheline] |  |  |  |  |  |  |  |  |  |  | intermediate plasma stability
CCCOc1cc(N)ccc1C(=O)OCCN(CC)CC [propoxycaine] |  |  |  |  |  |  |  |  |  |  | low plasma stability
